According to patent US6806265B2, “Non-nucleoside reverse transcriptase inhibitors” (priority 2002, dated 2004):
Where two headings read alike, the source gives them in different places.

Assays:
[1] = target: T1, HIV-1 RT double mutant K103N/Y181C (Human immunodeficiency virus type 1 group M subtype B, UniProt P03366, K702N/Y780C); test: biochemical
T1 construct: HIV-1 wild type reverse transcriptase as well as the clinically significant double mutant K103N/Y181C
Method: (§1) Utilizing the Reverse Transcriptase (RT) Assay described below, compounds were tested for their ability to inhibit the RNA-dependent DNA polymerase activity of HIV-1 RT. Certain specific compounds described in the Examples and in Tables 1-4, were so tested. The results of this testing appear in Table 5 as ranges of IC50 (nM) and EC50 (nM).
(§2) Reverse Transcriptase (RT) Assays

[2] = target: T2, HIV-1 wild type reverse transcriptase (Human immunodeficiency virus type 1 group M subtype B, UniProt P03366); test: biochemical; conditions: wild type RT; read-out: IC50 WT RT
T2 construct: HIV-1 wild type reverse transcriptase
Method: as §1, §2

HIV-1 wild type = test: microbe, parasite or virus in culture; type: cell-based; conditions: wild type, read-out: EC50 WT RT
[3] = system: HIV-1 double mutant K103N/Y181C; test: microbe, parasite or virus in culture; type: cell-based
[4] = Human immunodeficiency virus 1, read-out: EC50 K103N/Y181C (nM)
[5] = RT double mutant K103N/Y181C, read-out: IC50 K103N/Y181C
[6] = double mutant K103N/Y181C, read-out: EC50 K103N/Y181C

Structure (SMILES)	IC50 [1]	IC50 [2]	EC50 (HIV-1 wild type; Human immunodeficiency virus 1)	EC50 [3, 4]	IC50 [1, 5]	EC50 (HIV-1 wild type)	EC50 [3, 6]
CCN1c2ncc(CCOc3ccc(-c4csc(N)n4)cc3C)cc2C(=O)N(C)c2cccnc21 [Entry 1093, 8-{2-[4-(2-Amino-4-thiazolyl)-2-methylphenoxy]ethyl}-11-ethyl-5,11-dihydro-5-methyl-6H-dipyrido[3,2-b:2′,3′-e][1,4]diazepin-6-one]	< 50 nM	< 50 nM	< 10 nM	< 10 nM	–	–	–
CCN1c2ncc(CCOc3ccc(-c4ccncc4)cc3)cc2C(=O)N(C)c2cccnc21 [Entry 1090, 11-Ethyl-5,11-dihydro-5-methyl-8-{2-[4-(4-pyridinyl)phenoxy]ethyl}-6H-dipyrido[3,2-b:2′,3′-e][1,4]diazepin-6-one]	50 to 100 nM	< 50 nM	< 10 nM	10 to 50 nM	–	–	–
Cc1cc(-c2ccc(CC(=O)O)cc2)ccc1OCCc1cnc2c(c1)C(=O)N(C)c1cccnc1N2 [Entry 1059]	–	< 50 nM	–	–	> 100 nM	< 10 nM	> 50 nM
CCN1c2ncc(CCOc3ccc(C(=O)Nc4cc[n+]([O-])cc4)cc3C)cc2C(=O)N(C)c2cccnc21 [Entry 3004, 4-[2-(11-Ethyl-6,11-dihydro-5-methyl-6-oxo-5H-dipyrido[3,2-b:2′,3′-e][1,4]diazepin-8-yl)ethoxy]-3-methyl-N-(1-oxido-4-pyridinyl)benzamide]	< 50 nM	< 50 nM	< 10 nM	< 10 nM	–	–	–
CCN1c2ncc(CCOc3ccc(C(=O)NN)cc3C)cc2C(=O)N(C)c2cccnc21 [Entry 4011, 4-[2-(11-Ethyl-6,11-dihydro-5-methyl-6-oxo-5H-dipyrido[3,2-b:2′,3′-e][1,4]diazepin-8-yl)ethoxy]-3-methylbenzoic acid hydrazide]	< 50 nM	< 50 nM	< 10 nM	< 10 nM	–	–	–
CCN1c2ncc(CCOc3ccc(-c4cc[n+]([O-])cc4)cc3)cc2C(=O)N(C)c2cccnc21 [Entry 1091, 11-Ethyl-5,11-dihydro-5-methyl-8-{2-[4-(1-oxido-4-pyridinyl)phenoxy]ethyl}-6H-dipyrido[3,2-b:2′,3′-e][1,4]diazepin-6-one]	< 50 nM	< 50 nM	< 10 nM	< 10 nM	–	–	–
CCN1c2ncc(CCOc3ccc(C(=O)NCC(CC)(CC)C(=O)O)cc3C)cc2C(=O)N(C)c2cccnc21 [Entry 4014]	< 50 nM	< 50 nM	< 10 nM	10 to 50 nM	–	–	–
CCN1c2ncccc2NC(=O)c2cc(CCOc3ccc(-c4ccc(CC(=O)O)cc4)cc3C)cnc21 [Entry 1058]	–	< 50 nM	–	–	50 to 100 nM	< 10 nM	10 to 50 nM
